System: bitter taste of KCl
Experiment: KCl Latin Square-2AFC taste test, macaroni and cheese (chew and spit)
Assay type: in vivo, humans
Conditions: KCl 5.7% in cheese powder (0.34% in final prepared food product); for # of panelists discerning decrease in bitter taste/# of panelists tested: versus KCl standard
Experimental: The taste test panelists used in the following examples were screened based upon and selected for their ability to perceive the bitter taste associated with potassium chloride. Only panelists capable of perceiving bitter taste participated in the following taste tests.
The effect of the test compounds on the perception of the bitter taste of KCl in prepared food products in humans was evaluated using a “chew and spit” test using a Latin Square-2AFC testing method as follows.
Edible KCl food products (“KCl test food product”) were prepared according to the following instructions. 6 cups water were boiled in stainless steel pot to a ‘rolling’ boil. Once a rolling boil was achieved, 166.5 grams of pasta were added to the boiling water. The pasta was stirred briefly to prevent the pasta from sticking to the pot. The pasta was boiled for 8.5 minutes and drained in a stainless steel colander. The pasta was shaken (approximately 15 times back and forth and twice up and down) to remove excess water. The drained pasta was returned to the stainless steel pot, and 56 grams (4 tablespoons) Land O'Lakes™ unsalted butter was added to the hot pasta. When the unsalted butter was half melted, 39.5 grams cheese powder (containing the KCl) was added in the center of the pasta. Separately, test compound was diluted in 1 ml of propylene glycol (PG; alternatively the test compound may also be diluted in a milk stock solution or a butter oil stock solution) and the resulting solution added to 99 ml of milk. 63 ml of the PG/milk solution was poured around cheese powder and gently folded into the pasta with a stainless steel spoon in order to avoid cheese clumping on spoon. KCl standards were similarly prepared by adding milk without any test compound.
The panelists tasted portions by chewing and spitting. In order to eliminate any effects of sample order, a complete Latin Square design was employed so that each possible order of sample presentation was utilized across subjects. Each sample was tested in several discrete taste test experiments. […]

## C/C(=C\CO)CCCC(C)CCCC(C)CCCC(C)C (stereo not drawn) [Compound 5]
  Conc. at Which At Least 50% of Panelists Discerned Decrease in Bitter Taste: 10 ppm
Compound at 10 ppm
  # of panelists discerning decrease in bitter taste/# of panelists tested: 10 (28/50)
Compound at 20 ppm
  # of panelists discerning decrease in bitter taste/# of panelists tested: 20 (20/49)
